Consider three compounds from US20100216761A1, “NOVEL AZETIDINONES USEFUL AS INHIBITORS OF ELASTASE” (priority 2007, published 2010).

Several values for one entry are separate records, joined by “and”; a condition that tells them apart may be missing. Identical values can stand only once.

The target of data set [1] is T1, CYP-P450 2D6 (Homo sapiens, UniProt P10635).
T1 construct: host or cells: human liver microsomes or recombinant P450 microsomes
Description: CYP-P450 reversible inhibition, 2D6. Format: in vitro ADME. As to conditions: human liver microsomes or recombinant P450 microsomes; fluorescent probe. As to the method:
(§1) This assay measured the reversible inhibition of the test compounds against three cytochrome P450 isozymes (CYP-P450 3A4, 2C9 and 2D6) in an automated screening formate. […] Cumene hydroperoxide, NADPH or NADPH regenerating systems can be used as electron donors for the P450 catalytic cycle. Control incubations containing no inhibitor or no fluorescent probe were performed to evaluate the 100% and 0% activities, respectively. The activity of P450 enzyme was evaluated in the presence of 0.137, 0.273, 0.547, 1.094, 2.188, 4.375, 8.750, 17.5, 35.0 and 70.0 μM concentrations of the test compounds. Inhibition curves were generated and IC50 values were calculated for each tested compound using standard techniques.
On the technique in general: Liver microsomes are a subcellular fraction often used to study metabolism.

Data set [2] is described as follows: Human liver microsome stability (Assays #1-#4). In kind it is in vitro ADME. As to conditions: substrate 1 μM, 37° C.; for % Left Assay 3 @ 0 min / % Left Assay 3 @ 5 min / % Left Assay 3 @ 10 min / % Left Assay 3 @ 15 min / % Left Assay 3 @ 30 min / % Left Assay 3 @ 60 min / % Left @ 30 min / half-life at 1 μM: protein 0.1 mg/mL; for % Left (+NADPH) @ 0 min / % Left (+NADPH) @ 5 min / % Left (+NADPH) @ 10 min / % Left (+NADPH) @ 15 min / % Left (+NADPH) @ 30 min / % Left (+NADPH) @ 60 min / % Left (−NADPH) @ 0 min / % Left (−NADPH) @ 60 min: Assay #4, protein 1.0 mg/mL; for % Left (−NADPH) @ 0 min / % Left (−NADPH) @ 60 min: −NADPH control; for % Left @ 30 min / half-life at 1 μM: Assay #1; for half-life at 1 μM: human, liver microsomes. As to the method: The results for Examples 1 and 3 were t112=87 and 32 minutes with 78% and 60% remaining after 30 minutes, respectively, compared to shorter half-lives and lesser amounts left for Examples 2 and 4-6 (see Note 6 for conditions).
Under similar in vitro human liver microsome preparation stability assay conditions at 37° C. for 30 or 60 minutes in a separate head-to-head experiments (Assay #2 and #3) (see Note 6 for conditions) with Examples 1 and 3 and the comparator Compound #290 from U.S. Pat. No. 5,591,737, the amounts left after the 30 minute incubation (with […] microsome protein vs 0.1 mg/mL for Assay #3) were 67, 99 and 79% and for the 60 minute incubation were 94, 73 and 77%, respectively. Similarly, in a third repeat assay (Assay #4 with—NADPH controls) (see Note 6 for conditions), 90 and 72% were remaining for Example 1 and the comparator compound, respectively. […]
Note 6: Human Liver Microsome Assay # 1-3 conditions. • Assay experiment #1: Substrate concentration=1 μM; Protein concentration=0.1 mg/mL; incubation time=30 minutes at 37° C. • Assay experiment #2: Substrate concentration=1 μM; Protein concentration 0.1 mg/mL; incubation time=30 minutes at 37° C. • Assay experiment #3: Substrate concentration=1 μM; Protein concentration=0.1 mg/mL; incubation time=60 minutes at 37° C. • Assay experiment #4: Substrate concentration=1 μM; Protein concentration=1.0 mg/mL; incubation time=60 minutes at 37° C.

Data set [3] concerns the target T2, CYP-P450 3A4 (Homo sapiens, UniProt P08684).
T2 construct: host or cells: human liver microsomes or recombinant P450 microsomes
The data set is described as follows: CYP-P450 reversible inhibition, 3A4. As to conditions: human liver microsomes or recombinant P450 microsomes; fluorescent probe. Format: in vitro ADME. As to the method:
as §1

Data set [4] concerns the target T3, Human Leukocyte Elastase (HLE) (Homo sapiens, UniProt P08246).
T3 construct: The PMN lysates were prepared by isolating human neutrophils from whole blood; from tissue; host or cells: human neutrophils (PMN) isolated from whole blood, lysed by sonication in PBS
T3 sequence (P08246 30-267): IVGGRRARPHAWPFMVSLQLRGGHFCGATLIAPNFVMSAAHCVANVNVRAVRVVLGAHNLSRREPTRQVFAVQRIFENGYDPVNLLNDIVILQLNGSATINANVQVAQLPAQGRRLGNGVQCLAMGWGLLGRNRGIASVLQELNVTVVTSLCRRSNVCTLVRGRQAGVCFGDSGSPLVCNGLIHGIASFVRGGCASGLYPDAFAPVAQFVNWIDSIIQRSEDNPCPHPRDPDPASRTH
The data set is described as follows: HLE time-dependent inactivation assay, purified elastase. In kind it is biochemical. As to conditions: purified elastase 3 nM; inhibitor 26.5 nM; substrate 1 mM. As to the method: As exemplified in Table 1, the Examples 1-6 of this application were determined to be potent, mechanism-based inactivators of Human Leukocyte Elastase (HLE) in two different in vitro time-dependent incubation assays. The two assays are described at the end of this Biological Data Section in Note 1. See the literature references in Note 2 for a discussion of the mechanism for this type of beta-lactam inactivation of HLE. Two sources of enzyme were used; either purified elastase or crude extracts of human polymorphonuclear leukocytes (PMN) containing elastase activity. […] For the compound of Example 1, the results were 638,000 M^−1 sec^−1 (average of n=3) and 809,000 M^−1 sec^−1 (n=4), respectively, and for Example 3, 804,000 M^−1 sec^−1 (average of n=4) and 952,000 M^−1 sec^−1 (n=5). […] Note that in this assay, head-to-head comparisons are particularly valuable.
Note 1: Enzyme Assays for the Inhibition of Human Polymorphonuclear Leukocyte Elastase Via Hydrolysis of N-Methyoxysuccinyl-alanyl-alanyl-prolylalanine-p-nitroanilide Reagent.
Prepare substrate by first dissolving in DMSO to 30 mg/ml (50 mM). Further dilute the substrate to 10 mM and add 25 μl to a final volume of 250 μl for a final concentration of 1 mM in the assay.
Prepare the enzyme in TES Buffer (0.045M TES (N-tris[hydroxymethyl]methyl-2-mino-ethanesulfonic acid), 0.45 M NaCl, pH 7.5.). Two sources of enzyme were used; either crude extracts of human polymorphonuclear leukocytes (PMN) containing elastase activity or purified elastase. The PMN lysates were prepared by isolating human neutrophils from whole blood after dextran sedimentation, ficoll density separation and red blood cell lysis. The neutrophils were lysed in PBS with sonciation and the concentration of active enzyme was determined by utilizing a standard curve of purified enzyme. For the purified elastase, the enzyme was resuspended at 10 mg/ml (˜340 μM) in 0.02M NaOAc, 50% glycerol. For both the PMN lysate and purified enzyme, a further dilution of enzyme was made to 30 nM and 25 μl was added to a final volume of 250 μl. The final concentration of enzyme in the assay was 3 nM.
The inhibitors to be tested were dissolved in DMSO at 10 mM. Directly before use, the inhibitors were further diluted into TES Buffer to 265 nM and […] was added to a final volume of 250 μl. The final concentration of inhibitor in the assay was 26.5 nM.
In a 96-well plate (flat bottom, polystyrene) 175 μl TES Buffer, 25 μl substrate, 25 μl inhibitor and 25 μl enzyme were added. After thoroughly mixing, the plate was then read in a spectrophotometer at 410 nm for 30 minutes counting every 10 seconds. Results were expressed as Kinact/Ki which is the second order rate constant in per mole per second for inactivation of the enzyme.

T1 sequence (P10635 whole entry): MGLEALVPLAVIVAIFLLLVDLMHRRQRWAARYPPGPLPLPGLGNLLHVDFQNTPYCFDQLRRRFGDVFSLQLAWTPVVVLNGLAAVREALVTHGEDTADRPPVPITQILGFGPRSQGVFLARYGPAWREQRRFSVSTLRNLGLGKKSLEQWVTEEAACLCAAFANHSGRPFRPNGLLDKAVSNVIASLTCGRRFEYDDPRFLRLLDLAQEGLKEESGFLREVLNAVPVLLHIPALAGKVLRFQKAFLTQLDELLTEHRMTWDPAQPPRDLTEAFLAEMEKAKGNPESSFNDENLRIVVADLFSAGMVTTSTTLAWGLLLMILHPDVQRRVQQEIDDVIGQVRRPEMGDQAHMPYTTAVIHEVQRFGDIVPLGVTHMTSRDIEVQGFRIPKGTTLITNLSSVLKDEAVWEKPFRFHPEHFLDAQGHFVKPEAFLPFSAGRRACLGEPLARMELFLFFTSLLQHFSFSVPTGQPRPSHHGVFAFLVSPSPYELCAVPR
T2 sequence (P08684 whole entry): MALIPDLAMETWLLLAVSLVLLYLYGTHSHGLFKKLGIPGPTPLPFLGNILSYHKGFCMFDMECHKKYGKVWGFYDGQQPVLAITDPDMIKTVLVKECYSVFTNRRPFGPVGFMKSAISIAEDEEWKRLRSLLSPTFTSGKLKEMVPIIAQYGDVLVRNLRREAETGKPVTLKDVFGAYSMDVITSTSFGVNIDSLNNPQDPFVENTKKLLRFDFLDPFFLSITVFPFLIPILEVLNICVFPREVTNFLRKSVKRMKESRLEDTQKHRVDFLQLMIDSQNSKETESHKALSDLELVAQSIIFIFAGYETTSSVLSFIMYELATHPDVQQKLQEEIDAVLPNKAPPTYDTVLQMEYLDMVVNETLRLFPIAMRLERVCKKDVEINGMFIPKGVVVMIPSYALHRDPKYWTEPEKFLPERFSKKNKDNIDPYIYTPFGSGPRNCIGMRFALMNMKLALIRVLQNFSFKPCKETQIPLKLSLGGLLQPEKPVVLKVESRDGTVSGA

As usually defined, the IC50 is the concentration at which inhibition is half-maximal. The term kinact/KI denotes the maximal inactivation rate divided by the concentration that gives half of it. As to `CCC[C@@H](NC(=O)N1C(=O)C(CC)(CC)[C@@H]1Oc1ccc(C(=O)N(C)CCN(C)C)cc1)c1ccc(OC)cc1` [Compound #290, reference compound], the IC50 in data set [1] came to 39 µM. For the same compound, in data set [2], the “% Left Assay 2 @ 0 min” value amounted to 100%, the “% Left Assay 2 @ 2.5 min” value is reported as 99%, the “% Left Assay 2 @ 5 min” value amounted to 95% and the “% Left Assay 2 @ 10 min” value amounted to 89%. Besides, in data set [2], the “% Left Assay 2 @ 15 min” value came out at 82%; the “% Left Assay 2 @ 30 min” value is 79% and 79 +/− 6%; the “% Left Assay 3 @ 0 min” value is reported as 100%; the “% Left Assay 3 @ 5 min” value came to 90%. Besides, in data set [2], the “% Left Assay 3 @ 10 min” value came to 88%; the “% Left Assay 3 @ 15 min” value came out at 85%; the “% Left Assay 3 @ 30 min” value came to 83%; the “% Left Assay 3 @ 60 min” value is 77% and 77 +/− 4%. Moreover, in data set [2], the “% Left (+NADPH) @ 0 min” value turned out to be 100%, the “% Left (+NADPH) @ 5 min” value came out at 92%, the “% Left (+NADPH) @ 10 min” value is 89% and the “% Left (+NADPH) @ 15 min” value is 84%. Further, in data set [2], the “% Left (+NADPH) @ 30 min” value is listed as 78%; the “% Left (+NADPH) @ 60 min” value is 72% and 72 +/− 0%; the “% Left (−NADPH) @ 0 min” value is recorded as 89 +/− 5%; the “% Left (−NADPH) @ 60 min” value is 83 +/− 1%. The 50% inhibitory concentration (IC50) in data set [3] was 62 µM. Further, the kinact/KI in data set [4] amounted to 523000 M⁻¹ s⁻¹.

For orientation: half-life means the time in which the quantity being followed falls by half. High values mean slow decline, low ones rapid decline. On to `CCC[C@@H](NC(=O)N1C(=O)C(CC)(CC)[C@@H]1Oc1ccc(C(=O)N(CC)CCN(C)C)cc1)c1ccc(OC(F)(F)F)cc1` [Example 1, 2-(S)-[4-(((2-(Dimethylamino)ethyl)ethylamino)carbonyl)phenoxy]-3,3-diethyl-N-[1-(R)-(4-(trifluoromethoxy)phenyl)butyl]-4-oxo-1-azetidinecarboxamide], for which, in data set [1], the concentration for half-maximal inhibition (IC50) is 37 µM. For the same compound, in data set [2], the “% Left @ 30 min” value was determined as 78%, the “% Left Assay 2 @ 0 min” value is listed as 100%, the “% Left Assay 2 @ 2.5 min” value stood at 78% and the “% Left Assay 2 @ 5 min” value turned out to be 78%. In data set [2], the “% Left Assay 2 @ 10 min” value was found to be 73%; the “% Left Assay 2 @ 15 min” value is 70%; the “% Left Assay 2 @ 30 min” value was 67% and 67 +/− 2%; the “% Left Assay 3 @ 0 min” value was found to be 100%. Moreover, in data set [2], the “% Left Assay 3 @ 5 min” value came to 101%, the “% Left Assay 3 @ 10 min” value stood at 79%, the “% Left Assay 3 @ 15 min” value turned out to be 90% and the “% Left Assay 3 @ 30 min” value came out at 100%. In data set [2], the “% Left Assay 3 @ 60 min” value was 94% and 94 +/− 10%; the “% Left (+NADPH) @ 0 min” value stood at 100%; the “% Left (+NADPH) @ 5 min” value was 104%; the “% Left (+NADPH) @ 10 min” value worked out at 99%. In data set [2], the “% Left (+NADPH) @ 15 min” value was determined as 96%; the “% Left (+NADPH) @ 30 min” value is given as 91%; the “% Left (+NADPH) @ 60 min” value is 90% and 90 +/− 4%; the “% Left (−NADPH) @ 0 min” value is given as 87 +/− 21%. Besides, in data set [2], the “% Left (−NADPH) @ 60 min” value is given as 99 +/− 2% and the half-life at 1 μM amounted to 87 min. The IC50 in data set [3] was 46 µM. For the same compound, the kinact/KI in data set [4] was determined as 638000 M⁻¹ s⁻¹.

In the case of `CCC[C@@H](NC(=O)N1C(=O)C(CC)(CC)[C@@H]1Oc1ccc(C(=O)N(CC)CCN(C)C)cc1)c1ccc(C(F)(F)F)cc1` [Example 3, 2-(S)-[4-(((2-(Dimethylamino)ethyl)ethylamino)carbonyl)phenoxy]-3,3-diethyl-N-[1-(R)-(4-(trifluoromethyl)phenyl)butyl]-4-oxo-1-azetidinecarboxamide], the IC50 in data set [1] turned out to be 41 µM. In data set [2], the “% Left @ 30 min” value worked out at 60%, the “% Left Assay 2 @ 0 min” value is reported as 100%, the “% Left Assay 2 @ 2.5 min” value was 107% and the “% Left Assay 2 @ 5 min” value came out at 85%. Further, in data set [2], the “% Left Assay 2 @ 10 min” value is given as 82%; the “% Left Assay 2 @ 15 min” value is 82%; the “% Left Assay 2 @ 30 min” value is 99% and 79 +/− 7%; the “% Left Assay 3 @ 0 min” value turned out to be 100%. Besides, in data set [2], the “% Left Assay 3 @ 5 min” value stood at 86%, the “% Left Assay 3 @ 10 min” value was determined as 81%, the “% Left Assay 3 @ 15 min” value turned out to be 75% and the “% Left Assay 3 @ 30 min” value was 75%. In addition, in data set [2], the “% Left Assay 3 @ 60 min” value was 73% and 73 +/− 0%; the half-life at 1 μM is 32 min. The IC50 in data set [3] was determined as 39 µM. Further, the inactivation efficiency (kinact/KI) in data set [4] was found to be 804000 M⁻¹ s⁻¹.
